Laboratory results taken from patent EP4745138A1, “THIO-GLUTARIMIDO ISOINDOLINONE DERIVATIVE, BIFUNCTIONAL PROTEIN DEGRADER CONTAINING SAME, AND USES THEREOF” (Gluetacs Therapeutics (Shanghai) Co., Ltd., priority 2023, dated 2025).

What was measured:
[1] = biological target: T1, human Cereblon WT GST-tagged protein (Homo sapiens, UniProt Q96SW2); test: CRBN-binding affinity, HTRF (CEREBLON BINDING kit); details: for inhibition at 0.5 µM: read-out: Inhibition Rate at 0.5 µM (%); for inhibition at 2 µM: read-out: Inhibition Rate at 2 µM (%)
T1 construct: purchased CISBIO 64BDCRBNPEH
Method in brief: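 Readout is homogeneous time-resolved fluorescence, measuring displacement of a thalidomide-red tracer from GST-tagged Cereblon detected by a europium anti-GST antibody. Compounds were tested at final 2 µM and 0.5 µM after dilution in diluent #9 (1X).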

MV-4-11 = test: Tumor cell proliferation inhibition (CellTiter-Meiluncell Luminescent Cell Viability Assay); assay type: cell-based; details: Homo sapiens, 96 hours, Table I-7, CDK9 inhibitors; for inhibition at 0.01 µM: MV4-11, 10 nM, read-out: Inhibition Rate at 10 nM (%); for inhibition at 0.5 µM: MV4-11, 500 nM, read-out: Inhibition Rate at 500 nM (%)
Method in brief: (§1)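 Following overnight seeding, tumor cells received serial compound dilutions to final levels that included 10 nM and 500 nM. Viability was assessed by luminescence at the end of the specified exposure time. Cultures were kept at 37°C with 5% CO2.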

MM.1S = test: as above; assay type: cell-based; details: Homo sapiens, MM1.S, MM.1S, 96 hours, Table I-7, CDK9 inhibitors; for inhibition at 0.01 µM: 10 nM, read-out: Inhibition Rate at 10 nM (%); for inhibition at 0.5 µM: 500 nM, read-out: Inhibition Rate at 500 nM (%)
Method in brief: as §1

CDK9 = biological target: T2, CDK9 (Homo sapiens, UniProt P50750); test: Western blot, target protein degradation in MDA-MB-231 Cell; assay type: cell-based; details: substrate protein remaining %, treated at 500 nM and 50 nM, 24 hours
T2 construct: endogenous in cells; host or cells: MDA-MB-231
Protocol: Conventional Western blot assay was performed to evaluate the effects of the compounds of the present disclosure on the expression of target proteins in cells.
(1) Cell Seeding and Protein Harvesting: The selected cells were processed according to the cell seeding procedure and protein harvesting procedure in Table II-2. Table II-2 Cell Seeding and Protein Harvesting Procedures
(2) To the collected supernatant, 5X SDS sample loading buffer was added, followed by denaturation at 95°C for 5 minutes. The denatured samples were then separated by SDS-PAGE electrophoresis on a polyacrylamide gel. Proteins were transferred to a nitrocellulose membrane (0.45 µm NC membrane), blocked with blocking buffer at room temperature for 1 hour, and subjected to antibody incubation and development procedures according to the antibody manufacturer's instructions (Cell Signaling Technology).
Half-Maximal Degradation Concentration value (the drug concentration required for degrading proteins by 50%, abbreviated as DC50) reads method: comparing the grayscale values of Western blot bands from drug-treated samples with those from blank DMSO-treated controls, and identifying the drug concentration range at which the grayscale value is half that of the DMSO-treated control bands.
DC50 values can be calculated using ImageJ software to measure grayscale values of Western blot bands from drug-treated samples. The concentration-response curve is fitted to estimate the drug concentration corresponding to half the grayscale value.
Target protein remaining (%) refers to the percentage of target protein remaining in cells after treatment with protein degrader compounds.
Calculation method for target protein remaining (%): Use ImageJ software to measure grayscale values of Western blot bands from drug (protein degrader)-treated samples. The grayscale value of drug-treated bands is divided by that of internal control protein bands, and the resulting quotient is normalized to obtain the relative percentage of remaining target protein after protein degrader treatment. Target protein degradation rate(%) = 1−target protein remaining(%). [formula]

H1975 = test: Tumor cell proliferation inhibition (CellTiter-Meiluncell Luminescent Cell Viability Assay); assay type: cell-based; details: Homo sapiens, 96 hours, Table I-3, EGFR inhibitors; for inhibition at 0.01 µM: NCI-H1975, 10 nM, read-out: Inhibition Rate at 10 nM (%); for inhibition at 0.5 µM: NCI-H1975, 500 nM, read-out: Inhibition Rate at 500 nM (%)
Method in brief: as §1

T2 sequence (P50750 whole entry): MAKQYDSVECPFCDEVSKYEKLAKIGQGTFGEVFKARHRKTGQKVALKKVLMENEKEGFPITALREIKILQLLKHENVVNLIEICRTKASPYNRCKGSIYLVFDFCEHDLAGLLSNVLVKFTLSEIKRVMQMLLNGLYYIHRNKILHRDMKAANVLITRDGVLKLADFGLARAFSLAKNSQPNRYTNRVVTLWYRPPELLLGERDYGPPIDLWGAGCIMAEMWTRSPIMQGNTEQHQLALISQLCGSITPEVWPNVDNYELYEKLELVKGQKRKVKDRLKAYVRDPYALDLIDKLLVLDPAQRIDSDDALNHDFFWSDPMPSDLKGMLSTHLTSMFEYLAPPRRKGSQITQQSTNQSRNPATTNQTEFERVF
T1 sequence (Q96SW2 whole entry): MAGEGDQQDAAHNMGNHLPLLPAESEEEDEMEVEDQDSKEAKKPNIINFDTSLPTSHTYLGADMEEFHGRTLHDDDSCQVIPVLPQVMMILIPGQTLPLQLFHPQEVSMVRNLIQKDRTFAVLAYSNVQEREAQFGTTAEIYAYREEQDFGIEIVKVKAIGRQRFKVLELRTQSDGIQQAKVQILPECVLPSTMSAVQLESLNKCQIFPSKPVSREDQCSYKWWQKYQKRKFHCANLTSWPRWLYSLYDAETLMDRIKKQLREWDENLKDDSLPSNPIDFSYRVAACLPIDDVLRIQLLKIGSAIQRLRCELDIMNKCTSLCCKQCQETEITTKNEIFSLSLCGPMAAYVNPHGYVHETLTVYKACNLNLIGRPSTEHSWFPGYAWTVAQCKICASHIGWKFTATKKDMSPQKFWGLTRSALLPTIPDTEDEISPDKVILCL

SMILES | inhibition at 0.5 µM [1] | inhibition at 2 µM [1] | inhibition at 0.01 µM (MV-4-11) | inhibition at 0.5 µM (MV-4-11) | inhibition at 0.01 µM (MM.1S) | inhibition at 0.5 µM (MM.1S) | Degradation of substrate protein CDK9 (CDK9) | inhibition at 0.01 µM (H1975) | inhibition at 0.5 µM (H1975)
Cn1ncc(-c2nc(NC3CCN(Cc4ccc5c(c4)CN(C4CCC(=O)NC4=O)C5=S)CC3)ncc2Cl)c1CC1CC1 (stereo not shown) [GT-08682, 3-(5-((4-((5-chloro-4-(5-(cyclopropylmethyl)-1-methyl-1H-pyrazol-4-yl)pyrimidin-2-yl)amino)piperidin-1-yl)methyl)-1-thioxoisoindolin-2-yl)piperidine-2,6-dione] | 60 to 80% | 80 to 100% | 30 to 40% | 60 to 70% | 10 to 20% | 50 to 60% | A (0% ≤ substrate protein remaining % ≤ 80%) |  | 
N#CC1(CNc2cccc(-c3cc(NC4CCN(Cc5ccc6c(c5)C(=S)N(C5CCC(=O)NC5=O)C6)CC4)ncc3Cl)n2)CCOCC1 (stereo not shown) [GT-08752, 4-(((5'-chloro-2'-((1-((2-(2,6-dioxopiperidin-3-yl)-3-thioxoisoindolin-5-yl)methyl)piperidin-4-yl)amino)-[2,4'-bipyridin]-6-yl)amino)methyl)tetrahy dro-2H-pyran-4-carbonitrile] | 53 to 60% | 80 to 100% | 10 to 20% | 70 to 80% |  |  | A (0% ≤ substrate protein remaining % ≤ 80%) |  | 
Cn1ncc(-c2nc(NC3CCN(Cc4cccc5c4CN(C4CCC(=O)NC4=O)C5=S)CC3)ncc2Cl)c1CC1CC1 (stereo not shown) [GT-08686, 3-(4-((4-((5-chloro-4-(5-(cyclopropylmethyl)-1-methyl-1H-pyrazol-4-yl)pyrimidin-2-yl)amino)piperidin-1-yl)methyl)-1-thioxoisoindolin-2-yl)piperidine-2,6-dione] | 53 to 60% | 80 to 100% | 50 to 60% | 80 to 100% | 0 to 5% | 80 to 100% | A (0% ≤ substrate protein remaining % ≤ 80%) |  | 
O=C1CCC(N2Cc3ccc(CN4CCN(c5ccc(CC(=O)Nc6cc(C7CCC7)[nH]n6)cc5)CC4)cc3C2=S)C(=O)N1 (stereo not shown) [GT-08753, N-(5-cyclobutyl-1H-pyrazol-3-yl)-2-(4-(4-((2-(2,6-dioxopiperidin-3-yl)-3-thioxoisoindolin-5-yl)methyl)piperazin-1-yl)phenyl)acetamide] | 60 to 80% | 80 to 100% |  |  |  |  | A (0% ≤ substrate protein remaining % ≤ 80%) |  | 
O=C1CCC(N2Cc3c(CN4C[C@H]5C[C@@H]4CN5c4ccc(-c5cc(F)c6c(c5)C(=O)N(C(C(=O)Nc5nccs5)c5ncn7c5CCC7)C6)cc4)cccc3C2=S)C(=O)N1 (stereo partly drawn) [GT-08760, 2-(6,7-dihydro-5H-pyrrolo[1,2-c]imidazol-1-yl)-2-(6-(4-((1R,4R)-5-((2-(2,6-dioxopiperidin-3-yl)-1-thioxoisoindolin-4-yl)methyl)-2,5-diazabicyclo[2.2.1]heptan-2-yl)phenyl)-4-fluoro-1-oxoisoindolin-2-yl)-N-(thiazol-2-yl)acetamide] | 30 to 40% | 53 to 60% |  |  |  |  |  | 20 to 30% | 50 to 60%
O=C1CCC(N2Cc3c(CN4CCN(c5ccc(CC(=O)Nc6cc(C7CCC7)[nH]n6)cc5)CC4)cccc3C2=S)C(=O)N1 (stereo not shown) [GT-08688, N-(5-cyclobutyl-1H-pyrazol-3-yl)-2-(4-(4-((2-(2,6-dioxopiperidin-3-yl)-1-thioxoisoindolin-4-yl)methyl)piperazin-1-yl)phenyl)acetamide] | 60 to 80% | 80 to 100% | 40 to 50% | 50 to 60% |  |  | A (0% ≤ substrate protein remaining % ≤ 80%) |  | 
N#CC1(CNc2cccc(-c3cc(NC4CCN(Cc5cccc6c5CN(C5CCC(=O)NC5=O)C6=S)CC4)ncc3Cl)n2)CCOCC1 (stereo not shown) [GT-08687, 4-(((5'-chloro-2'-((1-((2-(2,6-dioxopiperidin-3-yl)-1-thioxoisoindolin-4-yl)methyl)piperidin-4-yl)amino)-[2,4'-bipyridin]-6-yl)amino)methyl)tetrahy dro-2H-pyran-4-carbonitrile] | 30 to 40% | 60 to 80% |  |  |  |  | A (0% ≤ substrate protein remaining % ≤ 80%) |  | 
N#CC1(CNc2nc(-c3cc(NC4CCN(Cc5ccc6c(c5)CN(C5CCC(=O)NC5=O)C6=S)CC4)ncc3Cl)cs2)CCOCC1 (stereo not shown) [GT-08681, 4-(((4-(5-chloro-2-((1-((2-(2,6-dioxopiperidin-3-yl)-1-thioxoisoindolin-5-yl)methyl)piperidin-4-yl)amino)pyridin-4-yl)thiazol-2-yl)amino)methyl)tetrahy dro-2H-pyran-4-carbonitrile] | 53 to 60% | 80 to 100% |  |  |  |  | A (0% ≤ substrate protein remaining % ≤ 80%) |  | 
N#CC1(CNc2nc(-c3cc(NC4CCN(Cc5cccc6c5CN(C5CCC(=O)NC5=O)C6=S)CC4)ncc3Cl)cs2)CCOCC1 (stereo not shown) [GT-08685, 4-(((4-(5-chloro-2-((1-((2-(2,6-dioxopiperidin-3-yl)-1-thioxoisoindolin-4-yl)methyl)piperidin-4-yl)amino)pyridin-4-yl)thiazol-2-yl)amino)methyl)tetrahy dro-2H-pyran-4-carbonitrile] | 53 to 60% | 80 to 100% |  |  |  |  | A (0% ≤ substrate protein remaining % ≤ 80%) |  | 
N#CC1(CNc2cccc(-c3cc(NC4CCN(Cc5ccc6c(c5)CN(C5CCC(=O)NC5=O)C6=S)CC4)ncc3Cl)n2)CCOCC1 (stereo not shown) [GT-08683, 4-(((5'-chloro-2'-((1-((2-(2,6-dioxopiperidin-3-yl)-1-thioxoisoindolin-5-yl)methyl)piperidin-4-yl)amino)-[2,4'-bipyridin]-6-yl)amino)methyl)tetrahy dro-2H-pyran-4-carbonitrile] | 40 to 53% | 80 to 100% | 50 to 60% | 50 to 60% |  |  | A (0% ≤ substrate protein remaining % ≤ 80%) |  | 
O=C1CCC(N2Cc3cc(CN4C[C@H]5C[C@@H]4CN5c4ccc(-c5cc(F)c6c(c5)C(=O)N(C(C(=O)Nc5nccs5)c5ncn7c5CCC7)C6)cc4)ccc3C2=S)C(=O)N1 (stereo partly drawn) [GT-08757, 2-(6,7-dihydro-5H-pyrrolo[1,2-c]imidazol-1-yl)-2-(6-(4-((1R,4R)-5-((2-(2,6-dioxopiperidin-3-yl)-1-thioxoisoindolin-5-yl)methyl)-2,5-diazabicyclo[2.2.1]heptan-2-yl)phenyl)-4-fluoro-1-oxoisoindolin-2-yl)-N-(thiazol-2-vl)acetamide] | 53 to 60% | 60 to 80% |  |  |  |  |  | 20 to 30% | 50 to 60%
O=C1CCC(N2Cc3cc(CN4CCN(c5ccc(CC(=O)Nc6cc(C7CCC7)[nH]n6)cc5)CC4)ccc3C2=S)C(=O)N1 (stereo not shown) [GT-08684, N-(5-cyclobutyl-1H-pyrazol-3-yl)-2-(4-(4-((2-(2,6-dioxopiperidin-3-yl)-1-thioxoisoindolin-5-yl)methyl)piperazin-1-yl)phenyl)acetamide] | 60 to 80% | 80 to 100% |  |  |  |  | A (0% ≤ substrate protein remaining % ≤ 80%) |  | 
